Measured values published in patent US20240083839A1, “COMPOSITIONS AND METHODS FOR TREATING NEURODEGENERATIVE DISEASES AND DISORDERS” (The Regents of the University of California, priority 2020, published 2024).
Values joined by “and” are separate entries in the source; they are usually repeats but may differ in a detail not shown here. Identical values can stand only once. Like-named read-outs stand apart in the source and are kept apart here.

Columns and labels:
[1] = system: SirT1 levels in N2a-E4 cells; test: SirT1 levels by AlphaLISA in ApoE4-transfected N2a cells; type: cell-based, murine
Description: Prompted by the emerging importance of the associations between ApoE4 and the expression/protein levels of SirT1, high-throughput screening (HTS) of the UCLA compound library was performed using AlphaLISA to detect SirT1 levels in murine neuroblastoma cells stably transfected with ApoE4 (E4-N2a) to identify SirT1 enhancers. […] In the in vivo study, mice were treated orally at 40 mkd (20 mg/kg BID) for 56 days and underwent assessment of cognition in the Novel Object Recognition (NOR) testing paradigm. […] The performance of A03-treated E4-AD mice (FIG. 5A) improved to level of non-transgenic vehicle-treated mice.
Throughout, for PAMPA: unit not given here.

SMILES	PAMPA (PAMPA)	SirT1 SOμM [1]	SirT1 SμM [1]	PAMPA (PAMPA; PAMPA)
CC(N)C(=O)OC1(Cc2ccc(Cl)cc2)CCC1 (stereo not drawn) [MP-09, 1-(4-chlorobenzyl)cyclobutyl 2-aminopropanoate]	4.16	A, A (A >20%)	A, A (A >20%)	–
CC(N)C(=O)OC1(Cc2ccc(Cl)cc2)CCCCC1 (stereo not drawn) [MP-10, 1-(4-chlorobenzyl)cyclohexyl 2-aminopropanoate]	6.58	B (B >50%)	A (A >20%)	–
CC(N)C(=O)OC(C)(C)Cc1cc(F)cc(F)c1 (stereo not drawn) [MP-14, 1-(3,5-difluorophenyl)-2-methylpropan-2-yl 2-aminopropanoate]	2.17	A, A (A >20%)	A, A (A >20%)	–
CC(N)C(=O)NC(C)(C)Cc1ccc(Cl)cc1 (stereo not drawn) [MP-15, 2-amino-N-(1-(4-chlorophenyl)-2-methylpropan-2-yl)propanamide]	2.74	B (B >50%)	A (A >20%)	–
CC(N)C(=O)NC(C)(C)Cc1ccc(F)c(F)c1 (stereo not drawn) [MP-22, -amino-N-(1-(3,4-difluorophenyl)-2-methylpropan-2-yl)propanamide]	1.7	C (C = 100% increase versus control)	A (A >20%)	–
CC(C)(Cc1ccc(F)c(F)c1)NC(=O)C1CCCN1C(=O)OC(C)(C)C (stereo not drawn) [MP-24, tert-butyl 2-(1-(3,4-difluorophenyl)-2-methylpropan-2-ylcarbamoyl)pyrrolidine-1-carboxylate]	1.27	a, a (a <250%)	a, a (a <250%)	–
CC(C)(Cc1ccc(F)c(F)c1)NC(=O)C1CCCN1 (stereo not drawn) [MP-25, N-(1-(3,4-difluorophenyl)-2-methylpropan-2-yl)pyrrolidine-2-carboxamide]	1.23(2)	B (B >50%)	A (A >20%)	–
CC(N)C(=O)OC(Cc1ccc(Cl)cc1)c1ccccc1 (stereo not drawn) [MP-26]	3.45	A, A (A >20%)	A, A (A >20%)	–
C[C@@H](N)C(=O)NC(C)(C)Cc1ccc(Cl)cc1 [MP-27, (R)-2-amino-N-(1-(4-chlorophenyl)-2-methylpropan-2-yl)propanamide]	2.72	a, a (a <250%)	a, a (a <250%)	–
C[C@H](N)C(=O)NC(C)(C)Cc1ccc(Cl)cc1 [MP-28, (S)-2-amino-N-(1-(4-chlorophenyl)-2-methylpropan-2-yl)propanamide]	2.78 and 2.86	B (B >50%)	A (A >20%)	–
CC(C)(Cc1ccc(Cl)cc1)NC(=O)C(C)(C)N [MP-29, 2-amino-N-(1-(4-chlorophenyl)-2-methylpropan-2-yl)-2-methylpropanamide]	2.1	a, a (a <250%)	a, a (a <250%)	–
C[C@H](N)C(=O)NC(C)(Cc1ccc(Cl)cc1)c1ccc(Br)cc1 (stereo partly drawn) [MP-30]	2.89	A, A (A >20%)	A, A (A >20%)	–
C[C@H](N)C(=O)OC1(Cc2ccc(Cl)cc2)CCCC1 [MP-34, 1-(4-chlorobenzyl)cyclopentyl alaninate]	4.92	A, A (A >20%)	A, A (A >20%)	–
C[C@H](N)C(=O)NC(C)(C)Cc1ccc(F)c(F)c1 [MP-35, (S)-2-amino-N-(1-(3,4-difluorophenyl)-2-methylpropan-2-yl)propanamide]	1.7	A, A (A >20%)	A, A (A >20%)	–
C[C@@H](N)C(=O)NC(C)(C)Cc1ccc(F)c(F)c1 [MP-36, (R)-2-amino-N-(1-(3,4-difluorophenyl)-2-methylpropan-2-yl)propanamide]	1.66	a, a (a <250%)	a, a (a <250%)	–
CC(C)(Cc1ccc(F)c(F)c1)NC(=O)[C@@H](N)c1ccccc1 [MP-37]	–	a (a <250%)	A (A >20%)	1.81
C[C@H](N)C(=O)NC(C)(C)Cc1cccc(C(F)(F)F)c1 [MP-39, (S)-2-amino-N-(2-methyl-1-(3-(trifluoromethyl)phenyl)propan-2-yl)propanamide]	1.7	A, A (A >20%)	A, A (A >20%)	–
C[C@@H](N)C(=O)NC(C)(C)Cc1cccc(C(F)(F)F)c1 [MP-40, (R)-2-amino-N-(2-methyl-1-(3-(trifluoromethyl)phenyl)propan-2-yl)propanamide]	1.78	A, A (A >20%)	A, A (A >20%)	–
C[C@H](N)C(=O)OC(C)(C)Cc1ccc(Cl)cc1 [MP-41, 1-(4-chlorophenyl)-2-methylpropan-2-yl L-alaninate]	–	A, A (A >20%)	A, A (A >20%)	3.88
C[C@@H](N)C(=O)OC(C)(C)Cc1ccc(Cl)cc1 [MP-42, 1-(4-chlorophenyl)-2-methylpropan-2-yl D-alaninate]	–	a, a (a <250%)	a, a (a <250%)	3.9
C[C@H](N)C(=O)NC(C)(C)Cc1cc(F)cc(F)c1 [MP-43, (S)-2-amino-N-(1-(3,5-difluorophenyl)-2-methylpropan-2-yl)propanamide]	1.59	A, A (A >20%)	A, A (A >20%)	–
C[C@@H](N)C(=O)NC(C)(C)Cc1cc(F)cc(F)c1 [MP-44, (R)-2-amino-N-(1-(3,5-difluorophenyl)-2-methylpropan-2-yl)propanamide]	1.57	A (A >20%)	a (a <250%)	–
C[C@H](N)C(=O)NC(C)(C)Cc1ccc(Br)cc1 [MP-47, (S)-2-amino-N-(1-(4-bromophenyl)-2-methylpropan-2-yl)propanamide]	1.76	A (A >20%)	B (B >50%)	–

The next lines start with results.

PAMPA (PAMPA)	SMILES	SirT1 SOμM [1]	SirT1 SμM [1]	PAMPA (PAMPA; PAMPA)
5.63	CC(C)CC(N)C(=O)OC(C)(C)Cc1ccc(Cl)cc1 (stereo not drawn) [MP-05, 1-(4-chlorophenyl)-2-methylpropan-2-yl 2-amino-4-methylpentanoate]	B (B >50%)	A (A >20%)	–
4.22	Cc1ccc(CC(C)(C)OC(=O)C(C)N)cc1 (stereo not drawn) [MP-06, 2-methyl-1-p-tolylpropan-2-yl 2-aminopropanoate]	B (B >50%)	A (A >20%)	–
4.15	CC(C)(Cc1ccc(Cl)cc1)OC(=O)CN [MP-07, 1-(4-chlorophenyl)-2-methylpropan-2-yl 2-aminoethanoate]	B (B >50%)	A (A >20%)	–
4.65	CC(C)C(N)C(=O)OC(C)(C)Cc1ccc(Cl)cc1 (stereo not drawn) [MP-08, 1-(4-chlorophenyl)-2-methylpropan-2-yl 2-amino-3-methylbutanoate]	C (C = 100% increase versus control)	A (A >20%)	–
5.28	CCC(C)C(N)C(=O)OC(C)(C)Cc1ccc(Cl)cc1 (stereo not drawn) [MP-11, 1-(4-chlorophenyl)-2-methylpropan-2-yl 2-amino-3-methylpentanoate]	A, A (A >20%)	A, A (A >20%)	–
4.95	CC(N)C(=O)OC(C)(C)CCc1ccc(Cl)cc1 (stereo not drawn) [MP-12, 4-(4-chlorophenyl)-2-methylbutan-2-yl 2-aminopropanoate]	A, A (A >20%)	A, A (A >20%)	–
6.49	CC(C)(Cc1ccc(Cl)cc1)OC(=O)C(N)CCCCN (stereo not drawn) [MP-13, 1-(4-chlorophenyl)-2-methylpropan-2-yl 2,6-diaminohexanoate]	C (C = 100% increase versus control)	A (A >20%)	–
2.53	CC(C)(Cc1ccc(Cl)cc1)OC(=O)C(N)CO (stereo not drawn) [MP-16, 1-(4-chlorophenyl)-2-methylpropan-2-yl 2-amino-3-hydroxypropanoate]	A, A (A >20%)	A, A (A >20%)	–
3.86	CC(C)(Cc1ccc(Cl)cc1)OC(=O)CCN [MP-17, 1-(4-chlorophenyl)-2-methylpropan-2-yl 3-aminopropanoate]	C (C = 100% increase versus control)	A (A >20%)	–
4.01(2)	C[C@H](N)CC(=O)OC(C)(C)Cc1ccc(Cl)cc1 [MP-18, (S)-1-(4-chlorophenyl)-2-methylpropan-2-yl 3-aminobutanoate]	A (A >20%)	a (a <250%)	–
2.61	CC(C)(Cc1ccc(Cl)cc1)OC(=O)C1CCCCN1 (stereo not drawn) [MP-19, 1-(4-chlorophenyl)-2-methylpropan-2-yl piperidine-2-carboxylate]	A, A (A >20%)	A, A (A >20%)	–
2.66	CC(C)(Cc1ccc(Cl)cc1)OC(=O)C1CCCN1 (stereo not drawn) [MP-20, 1-(4-chlorophenyl)-2-methylpropan-2-yl pyrrolidine-2-carboxylate]	B (B >50%)	A (A >20%)	–
3.03	CNC(C)C(=O)OC(C)(C)Cc1ccc(Cl)cc1 (stereo not drawn) [MP-23, 1-(4-chlorophenyl)-2-methylpropan-2-yl 2-(methylamino)propanoate]	a, a (a <250%)	a, a (a <250%)	–
0.4	C[C@H](N)C(=O)OC(C)(C)Cc1ccncc1 [MP-48, 2-methyl-1-(pyridin-4-yl)propan-2-yl alaninate]	B (B >50%)	A (A >20%)	–
3.36	C#Cc1ccc(CC(C)(C)OC(=O)[C@H](C)N)cc1 [MP-50, 1-(4-ethynylphenyl)-2-methylpropan-2-yl alaninate]	B (B >50%)	A (A >20%)	–
